This is an account of results in US9126969B2, “Pyrazolylbenzimidazole derivatives, compositions containing them and use thereof” (AVENTIS PHARMA S.A., priority 2006, dated 2015).

Where a name gives a salt, the structure may show the parent alone. Read-outs that look alike come from different tables or passages of the source.

In experiment [1] the test system is HeLa cells (tumor cell line). Kind of experiment: FDA-PI viability/proliferation assay on HeLa tumor cells. The format is cell-based. As to conditions: for IC50: Homo sapiens; for ratio: PBL viability IC50 / HeLa viability IC50. The procedure: (§1) The compounds were tested in a viability/proliferation assay for comparing, under similar conditions, their activity on proliferating tumor cells and on quiescent normal cells.
(§2) The HeLa cells (tumor cell line) and the PBLs (quiescent cells, peripheral blood lymphocytes) originate, respectively, from the ATCC and from Cambrex.
(§3) The HeLa cells (tumor cell line) are seeded at 0.25×10^6 cells/well in 2 mL of culture medium. The products are added 24 h after seeding. After incubation for 48 h in the presence of the products, all the HeLa cells (supernatant and adherent cells) are recovered, centrifuged and taken up in PBS containing a final concentration of 0.25 μg/mL of fluorescein diacetate (FDA), 10 μg/mL of propidium iodide (PI) and 3 μL/mL of 10 μm beads. The cell suspensions are filtered immediately before analysis on the Facscalibur. The PBLs are seeded at 10^6 cells/well in 2 mL of culture medium. The products are added 1-4 h after seeding. After incubation for 48 h in the presence of the products, half the cell suspension is recovered and incubated in the presence of a final concentration of 0.25 μg/mL of fluorescein diacetate (FDA), 10 μg/mL of propidium iodide (PI) and 2 μL/mL of 10 μm beads.
(§4) The FDA which enters the cells is cleaved by esterases only in live cells, releasing the fluorescein which emits a fluorescent radiation in the green range when it is excited (generally by UV radiation). The PI enters only the dead cells, the membrane of which is permeabilized, and emits a fluorescent radiation in the red range when it is excited. The beads are used as tracers for the dead cells having already disappeared at the time of reading.
(§5) Calculation: The % of viable cells relative to the nontreated control is given by: (number of live cells/number of live cells in the control)/(number of beads/number of beads in the control)×100 for the HeLa cells, and by: (number of live cells/number of live cells in the control)×100 for the quiescent PBLs. The products according to the invention are tested at several concentrations and an IC50, corresponding to the concentration which causes 50% of the maximum inhibition, is calculated.

Experiment [2] relates to PBLs (quiescent cells, peripheral blood lymphocytes). Kind of experiment: FDA-PI viability assay on quiescent PBLs. The format is cell-based. The conditions noted are these: Lymphocyte, 48 h incubation, read-out: Viability PBL IC50. Here is the method:
as §1, §2, §3, §4, §5

[3] abbreviates: HeLa cells, 48 h incubation, read-out: Viability HeLa IC50.
Setting [4] is: HeLa, read-out: IC50 values on the tumor cells.

`Cl.O=C(Nc1c[nH]nc1-c1nc2cc(F)c(N3CCOCC3)cc2[nH]1)N1CCCCC1` [Example 1, N-[3-(5-fluoro-6-morpholin-4-yl-1H-benzimidazol-2-yl)-1H-pyrazol-4-yl]piperidine-1-carboxamide Hydrochloride]: the IC50 in experiment [1] (setting [3]) turned out to be 107 nM; in experiment [2], 7550 nM. The ratio in experiment [1] was determined as 70. Turning to `CCN(CC)C(=O)Nc1c[nH]nc1-c1nc2cc(F)c(N3CCOCC3)cc2[nH]1` [Example 2, 1,1-diethyl-3-[3-(5-fluoro-6-morpholin-4-yl-1H-benzimidazol-2-yl)-1H-pyrazol-4-yl]urea Trifluoroacetate], the IC50 in experiment [1] (setting [4]) is less than 100 nM. Regarding `CCN(CC)C(=O)Nc1c[nH]nc1-c1nc2cc(F)c(OCCN3CCCCC3)cc2[nH]1` [Example 4, 1,1-diethyl-3-{3-[5-fluoro-6-(2-piperidin-1-ylethoxy)-1H-benzimidazol-2-yl]-1H-pyrazol-4-yl}urea Trifluoroacetate], in experiment [1] (setting [4]), the IC50 was less than 100 nM. Regarding `CCN(CC)C(=O)Nc1c[nH]nc1-c1nc2cc(F)c(OCCCN(C)C)cc2[nH]1` [Example 5, 3-{3-[6-(3-dimethylaminopropoxy)-5-fluoro-1H-benzimidazol-2-yl]-1H-pyrazol-4-yl}-1,1-diethylurea Trifluoroacetate], in experiment [1] (setting [4]), the IC50 is less than 100 nM. For the molecule `CCN(CC)C(=O)Nc1c[nH]nc1-c1nc2cc(F)c(OCCCN3CCCCC3)cc2[nH]1` [Example 6, 1,1-diethyl-3-{3-[5-fluoro-6-(3-piperidin-1-ylpropoxy)-1H-benzimidazol-2-yl]-1H-pyrazol-4-yl}urea Hydrochloride], the IC50 in experiment [1] (setting [4]) was less than 100 nM. Still for that read-out and setting: the value for `CC(C)N(C(=O)Nc1c[nH]nc1-c1nc2cc(F)c(N3CCCOCC3)cc2[nH]1)C(C)C` [Example 8, 3-[3-(5-fluoro-6-perhydro-1,4-oxazepan-4-yl-1H-benzimidazol-2-yl)-1H-pyrazol-4-yl]-1,1-diisopropylurea] was less than 100 nM. On to `CCN(CC)C(=O)Nc1c[nH]nc1-c1nc2cc(OCCCCN3CCCCC3)c(F)cc2[nH]1` [Example 9, 1,1-diethyl-3-{3-[6-fluoro-5-(4-piperidin-1-ylbutoxy)-1H-benzimidazol-2-yl]-1H-pyrazol-4-yl}urea Trifluoroacetate], for which, in experiment [1] (setting [4]), the IC50 is less than 100 nM. Regarding `CCN(CC)C(=O)Nc1c[nH]nc1-c1nc2cc(F)c(N3CCCOCC3)cc2[nH]1` [Example 11, 1,1-diethyl-3[3-(5-fluoro-6-perhydro-1,4-oxazepin-4-yl-1H-benzimidazol-2-yl)-1H-pyrazol-4-yl]urea], the IC50 in experiment [1] (setting [4]) was less than 100 nM. With `CN1CCN(c2cc3[nH]c(-c4n[nH]cc4NC(=O)N4CCCCC4)nc3cc2F)CC1.O=C(O)C(F)(F)F` [Example 12, N-{3-[5-fluoro-6-(4-methylpiperazin-1-yl)-1H-benzimidazol-2-yl]-1H-pyrazol-4-yl}piperidine-1-carboxamide Trifluoroacetate], the IC50 in experiment [1] (setting [3]) came to 56 nM; in experiment [2] it was 3490 nM. Further, the ratio in experiment [1] was 62. For the molecule `CCN(CC)C(=O)Nc1c[nH]nc1-c1nc2cc(F)c(N3CCN(C)CC3)cc2[nH]1` [Example 13, 1,1-diethyl-3-{3-[5-fluoro-6-(4-methylpiperazin-1-yl)-1H-benzimidazol-2-yl]-1H-pyrazol-4-yl}urea], the IC50 in experiment [1] (setting [4]) is less than 100 nM. In the case of `CCN(CC)C(=O)Nc1c[nH]nc1-c1nc2cc(F)c(NCCN(C)C)cc2[nH]1` [Example 15, 3-{3-[6-(2-dimethylaminoethylamino)-5-fluoro-1H-benzimidazol-2-yl]-1H-pyrazol-4-yl}-1,1-diethylurea Trifluoroacetate], the IC50 in experiment [1] (setting [4]) was less than 100 nM. The same measure, in the same setting: for `CC(C)N(C(=O)Nc1c[nH]nc1-c1nc2cc(F)c(N3CCOCC3)cc2[nH]1)C(C)C` [Example 16, 3-[3-(5-fluoro-6-morpholin-4-yl-1H-benzimidazol-2-yl)-1H-pyrazol-4-yl]-1,1-diisopropylurea] the value was less than 100 nM. For the molecule `CN1CCCN(c2cc3[nH]c(-c4n[nH]cc4NC(=O)N4CCCCC4)nc3cc2F)CC1.O=C(O)C(F)(F)F` [Example 17, N-{3-[5-fluoro-6-(4-methylperhydro-1,4-diazepin-1-yl)-1H-benzimidazol-2-yl]-1H-pyrazol-4-yl}-piperidine-1-carboxamide Trifluoroacetate], the IC50 in experiment [1] (setting [3]) came to 100 nM; in experiment [2], 4250 nM. The ratio in experiment [1] was 42.

As to `CCN(CC)C(=O)Nc1c[nH]nc1-c1nc2cc(F)c(N3CCCN(C)CC3)cc2[nH]1` [Example 18, 1,1-diethyl-3-{3-[5-fluoro-6-(4-methylperhydro-1,4-diazepin-1-yl)-1H-benzimidazol-2-yl]-1H-pyrazol-4-yl}urea], the IC50 in experiment [1] (setting [3]) worked out at 39 nM; in experiment [2], 3760 nM. Moreover, the ratio in experiment [1] worked out at 96. `CCN(CC)C(=O)Nc1c[nH]nc1-c1nc2ccc(N3CCN(C)CC3)cc2[nH]1` [Example 19, 1,1-diethyl-3-{3-[6-(4-methylpiperazin-1-yl)-1H-benzimidazol-2-yl]-1H-pyrazol-4-yl}urea]: in experiment [1] (setting [4]), the IC50 was less than 100 nM. The same measure, in the same setting: for `CN1CCN(c2ccc3nc(-c4n[nH]cc4NC(=O)N4CCCCC4)[nH]c3c2)CC1` [Example 20, N-{3-[6-(4-methylpiperazin-1-yl)-1H-benzimidazol-2-yl]-1H-pyrazol-4-yl}piperidine-1-carboxamide] the value was less than 100 nM. On the same count and under the same terms, for `CN(C)CCCOc1cc2[nH]c(-c3n[nH]cc3NC(=O)N3CCNCC3)nc2cc1F` [Example 31, N-{3-[6-(3-Dimethylaminopropoxy)-5-fluoro-1H-benzimidazol-2-yl]-1H-pyrazol-4-yl}piperazine-1-carboxamide] the value was 5000 to 30000 nM; for `CCN(C(=O)Nc1c[nH]nc1-c1nc2cc(F)c(OCCCN(C)C)cc2[nH]1)C(C)C` [Example 33, 3-{3-[6-(3-dimethylaminopropoxy)-5-fluoro-1H-benzimidazol-2-yl]-1H-pyrazol-4-yl}-1-ethyl-1-isopropylurea], less than 100 nM. Take `CC(C)N(C(=O)Nc1c[nH]nc1-c1nc2ccc(N3CCN(C)CC3)cc2[nH]1)C(C)C` [Example 34, 1,1-Diisopropyl-3-{3-[6-(4-methylpiperazin-1-yl)-1H-benzimidazol-2-yl]-1H-pyrazol-4-yl}urea]: the IC50 in experiment [1] (setting [4]) is less than 100 nM. For the molecule `CCN(C(=O)Nc1c[nH]nc1-c1nc2ccc(N3CCN(C)CC3)cc2[nH]1)C(C)C` [Example 37, 1-Ethyl-1-isopropyl-3-{3-[6-(4-methylpiperazin-1-yl)-1H-benzimidazol-2-yl]-1H-pyrazol-4-yl}urea], the IC50 in experiment [1] (setting [4]) is less than 100 nM. As to `O=C(Nc1c[nH]nc1-c1nc2cc(F)c(N3CCCOCC3)cc2[nH]1)N1CCCCC1` [Example 38], the figures for the IC50 in experiment [1] (setting [3]) and in experiment [2] were 85 nM and 9170 nM, respectively. For the same molecule, in experiment [1], the ratio was determined as 108. For the molecule `CC(C)N(C(=O)Nc1c[nH]nc1-c1nc2cc(F)c(N3CCN(C)CC3)cc2[nH]1)C(C)C` [Example 39, 3-{3-[5-Fluoro-6-(4-methylpiperazin-1-yl)-1H-benzimidazol-2-yl]-1H-pyrazol-4-yl}-1,1-diisopropylurea trifluoroacetate], the IC50 in experiment [1] (setting [4]) is less than 100 nM. Regarding `CC(C)N(C(=O)Nc1c[nH]nc1-c1nc2cc(F)c(N3CCCN(C)CC3)cc2[nH]1)C(C)C` [Example 40, 3-{3-[5-Fluoro-6-(4-methylperhydro-1,4-diazepin-1-yl)-1H-benzimidazol-2-yl]-1H-pyrazol-4-yl}-1,1-diisopropylurea], in experiment [1] (setting [4]), the IC50 is less than 100 nM.

The IC50 is the concentration that inhibits the measured activity by half.
